One series has as its target T1, Frizzled1-GFP (Homo sapiens, UniProt Q9UP38).
T1 construct: expressed in transfected cells
In words: Frizzled internalization assay (Fzd1-GFP). The note with it: 6 hours, 0-5 point scale. The series is classed as cell-based. On the set-up: key: Punctate similar to control=0; trace amount of punctate greater than control=1; moderate=3; strong=5. As for the experimental part:
The Fzd1-GFP assay was performed following a procedure similar to previously published work (Chen, M. Y.; Wang, J. B.; Lu, J. Y.; Bond, M. C.; Ren, X. R.; Lyerly, H. K.; Barak, L. S.; Chen, W. Biochemistry 2009, 48, 10267). Cells stably expressing Frizzled1-GFP plated in confocal dishes were treated, after 24 hours, with 12.5 μM of test compound or DMSO for 6 hours at 37° C. followed by fixation with 4% paraformaldehyde. The cells were then examined by microscopy using a LSM 510-Meta confocal microscope (Carl Zeiss, Thornwood, N.Y., USA) equipped with 40× and 100× apo chromat objectives. YFP was excited using a 488-nm argon laser line. Images were processed using the LSM software Image Browser (CarlZeiss, Thornwood, N.Y., USA). Plates were read twice in blinded fashion using a 0-5 point scale. ^aPunctate similar to control=0, trace amount of punctate greater than control=1, moderate=3, strong=5.

Series [1] deals with Wnt/β-catenin transcription. In words: Wnt-3A-stimulated TOPFlash reporter assay in HEK293 cells. The series is classed as cell-based. The settings on record: Homo sapiens, Wnt-3A conditioned medium, 8 hour treatment, read-out: Inhibition Wnt/β-catenin transcription TopFlash IC50. In general terms: A reporter such as luciferase makes a cellular process visible.
In series [2] the test system is High Fat Diet (HFD)-Induced Hepatic Steatosis. In words: Reduction of high fat diet (HFD)-induced hepatic steatosis. The series is classed as in vivo, C57BL/6J mice. The note with it: 200 mg/kg oral gavage, three months. As for the experimental part: Five week old male C57BL/6J mice were fed with chow or high fat diet for two months, followed by same diet and oral gavage of vehicle (corn oil) or compound 61 at 200 mg/kg for three months (daily for 6 days a week from Monday to Saturday). Liver tissue samples were collected after the three month treatment. Pictures shown in FIG. 9 are representative liver sections stained with H&E. A. Chow mice with vehicle; B. Chow mice with compound 61; C. HFD mice with vehicle; D. HFD mice with compound 61. […] The white fat deposits look similar in both panel A and B. However, when mice were fed a high fat diet (panel C), a large amount of white fatty deposits can be seen along with a large amount of dysplastic liver tissue.

In series [3] the test system is colon cancer cell line HCT116. Kind of series: Cell proliferation assay (MTS). The settings on record: for IC50: Homo sapiens, HCT-116, HCT116, 72 hours, 0.04 to 10 μM, read-out: Anti-proliferation IC50 (μM), MTS assay; for Anti-proliferation activity, MTS assay, in words: HCT116, up to 10 μM. The series is classed as cell-based. As for the experimental part: The colon cancer cell line HCT116 was used in the cell proliferation assay. The cells were plated in 100 μl of growing medium/well in 96-well plates at 5,000 cells per well and treated with compounds from 0.04 to 10 μM for 72 hours, after which point the cells were analyzed by colorimetric MTS assay (Promega, Madison, Wis., USA). Data were fit using GraphPad Prism (mean±SEM, n 3).

In the next series the test system is β-catenin. In words: Western blot of cytosolic β-catenin in HCT-116 cells. The series is classed as cell-based. The note with it: Homo sapiens, 2.0 μM compound, read-out: Remaining cytosolic β-catenin. As for the experimental part:
Western blots were performed following a procedure similar to previously published work (Osada, T.; Chen, M. Y.; Yang, X. Y.; Spasojevic, I.; Vandeusen, J. B.; Hsu, D.; Clary, B. M.; Clay, T. M.; Chen, W.; Morse, M. A.; Lyerly, H. K. Cancer Research 2011, 71, 4172). HCT-116 cells were grown to about 80% confluency in poly-D-lysine coated six-well plates 48 hours before treatment and followed by 2.0 μM compounds or DMSO incubation for 18 hours in growth medium. After treatment, the cytosolic fraction was isolated as described (Osada, T.; Chen, M. Y.; Yang, X. Y.; Spasojevic, I.; Vandeusen, J. B.; Hsu, D.; Clary, B. M.; Clay, T. M.; Chen, W.; Morse, M. A.; Lyerly, H. K. Cancer Research 2011, 71, 4172). Immunoblots using antibodies to […] (E-5, Santa Cruz Biotechnology catalog number sc-7963) was used to detect β-catenin protein levels in the cytosol, and immunoblots using antibodies to β-actin (C-4, Santa Cruz Biotechnology, catalog number SC-47778) was used for loading controls.
Inhibition of Wnt signaling was determined by analyzing the reduction of cytosolic β-catenin by Western blot (FIG. 1, 2).

The nature of series [4]: Pharmacokinetic studies, niclosamide in mouse plasma. The note with it: mice. The series is classed as in vivo, CD1 mice. As for the experimental part:
For niclosamide dosed IV, niclosamide was dissolved in a solvent of 67% polyethylene glycol 400 and 33% N,N-dimethylacetamide at a concentration of 3.27 mg/mL and tail vein injected at a dose of 2.6 mg/kg of body weight. Blood samples were obtained at predose and at 0.08, 0.17, 0.33, 0.67, 1.5, 4, 8, 12 hours after drug administration. For oral dosing of compound 74, compound 74 was dissolved in a solvent of 90% polyethylene glycol 300 and 10% 1-methyl-2-pyrrolidinone at a concentration of 20 mg/mL and gavaged at a dose of 200 mg/kg of body weight. Blood samples were obtained at predose and at 0.25, 0.5, 1, 2, 4, 8 hours after drug administration. For oral dosing of compound 61, compound 61 was dissolved in corn oil at a concentration of 20 mg/mL and dosed at 200 mg/kg of body weight. Blood samples were obtained at predose and at 0.25, 0.5, 0.75, 1, 1.5, 4, 8, 12, 24, 48, and 72 hours after drug administration. All the solvent reagents were purchased from Sigma-Aldrich (St. Louis, Mo., USA). CD1 mice were used in the pharmacokinetic studies. Quantification of niclosamide in mouse plasma was done by LC/MS-MS using methods similar to those previously published (Osada, T.; Chen, M. Y.; Yang, X. Y.; Spasojevic, I.; Vandeusen, J. B.; Hsu, D.; Clary, B. M.; Clay, T. M.; Chen, W.; Morse, M. A.; Lyerly, H. K. Cancer Research 2011, 71, 4172.).

For series [5] the following is noted: niclosamide dosed orally as a solution at 200 mg/kg, reported (Osada 2011); cited from earlier work.

Consider 14 compounds from US10905665B2, “Chemical modulators of signaling pathways and therapeutic use” (Duke University, priority 2015, dated 2021).

Where two headings read alike, the source gives them in different places.

T1 sequence (Q9UP38 70-647): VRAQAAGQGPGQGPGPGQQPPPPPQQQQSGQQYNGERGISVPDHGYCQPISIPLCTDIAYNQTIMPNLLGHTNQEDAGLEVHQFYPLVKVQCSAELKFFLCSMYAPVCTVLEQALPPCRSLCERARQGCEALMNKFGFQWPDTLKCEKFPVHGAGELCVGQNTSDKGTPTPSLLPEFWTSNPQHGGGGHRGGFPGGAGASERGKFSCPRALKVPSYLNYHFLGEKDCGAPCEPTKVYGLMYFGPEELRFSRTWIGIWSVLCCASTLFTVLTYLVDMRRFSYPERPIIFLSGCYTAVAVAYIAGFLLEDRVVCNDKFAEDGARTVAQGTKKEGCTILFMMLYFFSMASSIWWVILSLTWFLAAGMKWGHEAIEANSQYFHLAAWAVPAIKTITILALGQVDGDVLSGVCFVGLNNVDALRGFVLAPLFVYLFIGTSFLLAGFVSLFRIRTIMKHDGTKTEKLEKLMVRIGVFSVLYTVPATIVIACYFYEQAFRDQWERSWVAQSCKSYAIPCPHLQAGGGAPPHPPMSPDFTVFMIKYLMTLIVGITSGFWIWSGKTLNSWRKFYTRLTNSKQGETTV

For the compound `CCCCCCCC(=O)Oc1ccc(Cl)cc1C(=O)Nc1ccc([N+](=O)[O-])cc1Cl` [Compound 61, 4-Chloro-2-((2-chloro-4-nitrophenyl)carbamoyl)phenyl octanoate], at Frizzled1-GFP, the “Fzd1-GFP internalization @12.5 μM” value is listed as 5. The IC50 in series [1] (HEK293, 8 h) stood at 230 ± 60 nM; in series [3] it was 0.61 ± 0.11 µM. Further, the “Liver fat deposits and tissue architecture (H&E sections), high fat diet” value in series [2] (high fat diet) is “limited white fatty deposits without the dysplastic tissue architecture”. Also, the “Effect on the liver (H&E sections), chow diet” value in series [2] (normal chow diet) was “minimal to no effect”. Also, the activity at 2 µM in the series on β-catenin (HCT-116, 18 h) came to 8%. For the same compound, in series [4] (compound 61 in corn oil, 200 mg/kg oral), the “Plasma exposure of niclosamide compared to 200 mg/kg niclosamide dosed orally, in words” value is “significantly increased plasma exposure of niclosamide”.

With `O=C(Nc1ccc(Cl)cc1Cl)c1cc(Cl)ccc1O` [Compound 14, 5-chloro-N-(2,4-dichlorophenyl)-2-hydroxybenzamide], the “Fzd1-GFP internalization @12.5 μM” value at Frizzled1-GFP was 5. Besides, the IC50 was determined as 420 ± 100 nM in series [1] (HEK293, 8 h) and 1.18 ± 0.14 µM in series [3]. Also, the activity at 2 µM with β-catenin (HCT-116, 18 h) worked out at 7%.

`O=S(=O)(Nc1ccc(C(F)(F)F)cc1Cl)c1cc(Cl)ccc1O` [Compound 58, 5-Chloro-N-(2-chloro-4-(trifluoromethyl)phenyl)-2-hydroxybenzenesulfonamide]: at Frizzled1-GFP, the “Fzd1-GFP internalization @12.5 μM” value was found to be 1. In addition, the IC50 in series [1] (HEK293, 8 h) amounted to 2570 ± 270 nM. The “Anti-proliferation activity, MTS assay, in words” value in series [3] is on record as “no effect”.

Regarding `O=C(Nc1c(Cl)cccc1Cl)c1cc(Cl)ccc1O` [Compound 18, 5-chloro-N-(2,6-dichlorophenyl)-2-hydroxybenzamide], on Frizzled1-GFP, the “Fzd1-GFP internalization @12.5 μM” value came out at 0. For the same compound, in series [1] (HEK293, 8 h), the IC50 was above 12000 nM. Further, in series [3], the “Anti-proliferation activity, MTS assay, in words” value is reported as “no effect” and the IC50 is above 10 µM. Besides, in the series with β-catenin (HCT-116, 18 h), the activity at 2 µM turned out to be 100%.

Take `CN(C(=O)c1cc(Cl)ccc1O)c1ccc(C(F)(F)F)cc1` [Compound 24, 5-chloro-2-hydroxy-N-methyl-N-(4-(trifluoromethyl)phenyl)benzamide]: the “Fzd1-GFP internalization @12.5 μM” value on Frizzled1-GFP turned out to be 0. Also, the IC50 was above 12000 nM in series [1] (HEK293, 8 h) and above 10 µM in series [3]. The activity at 2 µM in the series with β-catenin (HCT-116, 18 h) was determined as 96%.

Regarding `O=c1oc2ccc(Cl)cc2c(=O)n1-c1ccc(C(F)(F)F)cc1` [Compound 74, 6-chloro-3-(4-(trifluoromethyl)phenyl)-2H-benzo[e][1,3]oxazine-2,4(3H)-dione], the IC50 in series [1] (HEK293, 8 h) amounted to 320 ± 30 nM. For the same compound, the “Pharmacokinetic properties after oral administration, in words” value in series [4] is on record as “poor pharmacokinetic properties”.

For `O=C(Nc1ccc(C(F)(F)F)cc1Cl)c1cc(Cl)ccc1O` [Compound 7, 5-chloro-N-(2-chloro-4-(trifluoromethyl)phenyl)-2-hydroxybenzamide], at Frizzled1-GFP, the “Fzd1-GFP internalization @12.5 μM” value was 5. For the same compound, the IC50 is 560 ± 210 nM in series [1] (HEK293, 8 h) and 0.54 ± 0.08 µM in series [3]. In addition, in the series with β-catenin (HCT-116, 18 h), the activity at 2 µM turned out to be 6%. Also, in series [4], the “Pharmacokinetic properties after oral administration, in words” value is reported as “poor pharmacokinetic properties”.

Consider `O=C(Nc1ccc([N+](=O)[O-])cc1Cl)c1cc(Cl)ccc1O` [A, 5-chloro-N-(2-chloro-4-nitrophenyl)-2-hydroxybenzamide, reference compound], for which the “Fzd1-GFP internalization @12.5 μM” value at Frizzled1-GFP is listed as 5. The IC50 in series [1] (HEK293, 8 h) was determined as 340 ± 80 nM; in series [3] it was 0.45 ± 0.05 µM. Besides, in series [5], the “Time plasma levels of niclosamide were above the TOPFlash IC50” value is “less than 1 hour”. Further, the activity at 2 µM in the series with β-catenin (HCT-116, 18 h) was 8%.

`CCOC(=O)Oc1ccc(Cl)cc1C(=O)Nc1ccc(C(F)(F)F)cc1Cl` [Compound 70, 4-Chloro-2-((2-chloro-4-(trifluoromethyl)phenyl)carbamoyl)phenyl ethyl carbonate]: the “Fzd1-GFP internalization @12.5 μM” value at Frizzled1-GFP is 5. For the same compound, the IC50 in series [1] (HEK293) is 340 ± 120 nM; in series [3], 0.51 ± 0.06 µM. In the series with β-catenin (18 hours), the activity at 2 µM is 8%.

Turning to `O=C(Nc1ccccc1)c1cc(Cl)ccc1O` [Compound 1, 5-chloro-2-hydroxy-N-phenylbenzamide], the “Fzd1-GFP internalization @12.5 μM” value at Frizzled1-GFP was 0. In addition, the IC50 in series [1] (HEK293, 8 h) stood at 11800 nM.

Turning to `O=C(Nc1ccccc1Cl)c1cc(Cl)ccc1O` [Compound 13, 5-chloro-N-(2-chlorophenyl)-2-hydroxybenzamide], on Frizzled1-GFP, the “Fzd1-GFP internalization @12.5 μM” value amounted to 1. Moreover, the IC50 in series [1] (HEK293, 8 h) was found to be 3050 ± 870 nM.

With `O=C(Nc1ccc(C(F)(F)F)cc1)c1cc(Cl)ccc1O` [Compound 8, 5-chloro-2-hydroxy-N-(4-(trifluoromethyl)phenyl)benzamide], on Frizzled1-GFP, the “Fzd1-GFP internalization @12.5 μM” value came to 5. The IC50 is 290 ± 60 nM in series [1] (HEK293, 8 h) and 0.67 ± 0.09 µM in series [3]. The activity at 2 µM in the series with β-catenin (HCT-116, 18 h) was 7%.

Turning to `O=c1oc2ccc(Cl)cc2c(=O)n1-c1ccc(C(F)(F)F)cc1Cl` [Compound 73, 6-Chloro-3-(2-chloro-4-(trifluoromethyl)phenyl)-2H-benzo[e][1,3]oxazine-2,4(3H)-dione], on Frizzled1-GFP, the “Fzd1-GFP internalization @12.5 μM” value came to 5. Besides, the IC50 in series [1] (HEK293, 8 h) is 330 ± 100 nM; in series [3] it was 0.55 ± 0.07 µM. Besides, in the series on β-catenin (HCT-116, 18 h), the activity at 2 µM amounted to 9%.

For `O=C(c1ccccc1)c1ccc(NC(=O)c2cc(Cl)ccc2O)cc1` [Compound 6, N-(4-benzoylphenyl)-5-chloro-2-hydroxybenzamide], the “Fzd1-GFP internalization @12.5 μM” value on Frizzled1-GFP worked out at 0. Moreover, in series [1] (HEK293, 8 h), the IC50 worked out at 15000 nM.
